Assay results published in patent US20240263142A1, “HUMAN OVARIAN CANCER NIRAPARIB-RESISTANT CELL STRAIN AND USE THEREOF” (WOMEN’S HOSPITAL, ZHEJIANG UNIVERSITY SCHOOL OF MEDICINE, priority 2022, published 2024).
Where two headings read alike, the source gives them in different places.

What was measured:
A2780-NiraR cells = assay: CCK-8 cytotoxicity experiment on Niraparib-resistant A2780-NiraR cells (resistance index, stability of resistance); assay type: cell-based, human; details: for Drug resistance index (RI) = IC50 of drug-resistant cells/IC50 of parental cells: A2780-NiraR vs A2780; for IC50: Homo sapiens
Description: (§1) A cell counting kit-8 (CCK-8) of Shanghai Beyotime Biotechnology Co., Ltd. (C0038) was used in the cytotoxicity experiment. Cells in logarithmic growth phase were collected, and the concentration of cell suspension was adjusted to 5×10^4 cells/ml; 100 μl of the cell suspension was added to each well of 96-well plate, and the density of the cells to be tested was 5000 cells/well; cultures were incubated overnight in the incubator with 5 vol % CO2 at 37° C. until the cells were grown as adherent monolayers, and then drugs with concentrations of 1×10^−3-100 μM were added respectively; 3 replicate wells were set for each concentration; OD values were determined after 72 h of drug treatment; 10 μl CCK-8 solution was added to each well; after further incubation in the cell incubator for 2 h, the absorbance was measured at 450 nm using a microplate reader (Bio-Rad, Model 680), as shown in FIG. 3. The IC50 of the drug was calculated.
Resistance index (RI)=IC50 of drug-resistant cells/IC50 of parental cells.
After the establishment of A2780-NiraR cell strain, the drug resistance was re-tested after cell resuscitation following 3-month drug-withdrawal culture and 6-month liquid nitrogen cryopreservation. The procedure was the same as that of the resistance index determination in part 3.

A2780 cells = assay: CCK-8 cytotoxicity experiment on parental A2780 cells; assay type: cell-based; details: Homo sapiens, 72 h drug treatment
Description: as §1

[1] = A2780-NiraR cells, 72 h drug treatment, CCK-8, read-out: IC50

SMILES | Resistance of A2780-NiraR cells in words (A2780-NiraR cells; A2780-NiraR cells) | Drug resistance index (RI) = IC50 of drug-resistant cells/IC50 of parental cells (A2780-NiraR cells) | IC50 (A2780-NiraR cells; A2780-NiraR after resuscitation following 3-month drug-withdrawal culture and 6-month liquid nitrogen cryopreservation, read-out: IC50 of A2780-NiraR on re-test) [µM] | IC50 (A2780-NiraR cells; [1]) [µM] | IC50 (A2780 cells) [µM]
NC(=O)c1cccc2cn(-c3ccc([C@@H]4CCCNC4)cc3)nc12 [Niraparib] | highly resistant | 8.274 | 24 | 26.2 | 3.17
CC(=O)O[C@H]1C(=O)[C@@]2(C)[C@H]([C@H](OC(=O)c3ccccc3)[C@]3(O)C[C@H](OC(=O)[C@H](O)[C@@H](NC(=O)c4ccccc4)c4ccccc4)C(C)=C1C3(C)C)[C@]1(OC(C)=O)CO[C@@H]1C[C@@H]2O [Paclitaxel] | cross-resistant | 31.02 |  | 0.318 | 0.01
